The text below walks through data of US20250235520A1, “METHODS FOR REVERSING A SUPPRESSED IMMUNE STATE TO INCREASE SURVIVAL IN A SUBJECT” (priority 2022, published 2025).

The subject of assay [1] is breast cancer patients with tumors expressing any degree of HER2. Put plainly: Phase IIb trial: injection site reactions (ISRs), orthogonal mean of largest perpendicular diameters. The assay is classed as in vivo, human. On the procedure:
Background: Delayed type hypersensitivity (DTH) skin tests in the randomized, active-controlled, single-blinded, multicenter Phase IIb trial investigating GLSI-100 (GP2+GM-CSF) administered in the adjuvant setting to node-positive and high-risk node-negative breast cancer patients with tumors expressing any degree of HER2 (immuno-histochemistry [IHC] 1-3+) (NCT00524277) were analyzed. The trial enrolled HLA-A*02 patients randomized to receive GLSI-100 versus GM-CSF alone. The trial's primary objective was to determine if treatment with GLSI-100, a HER2-derived peptide, reduces recurrence rates.
Methods: Patients were randomized and received GLSI-100 (500 micrograms (mcg) GP2 and 125 mcg GM-CSF) or control (GM-CSF) via 6 intradermal injections every 3-4 weeks for the first 6 months and 4 booster injections every 6 months. The magnitude of injection site reactions, which occurred in almost all patients, were assessed for the 10 doses administered by measuring the largest perpendicular diameters and the resulting orthogonal mean.

Assay [2] concerns breast cancer patients with tumors expressing HER2 (HER2 3+). Put plainly: Phase IIb trial (NCT00524277): disease free survival / recurrence. The class given is in vivo, human. The conditions noted are these: HER2 3+ patients who completed the primary immunization series after trastuzumab; 5 years of follow-up.

For “Ile Ile Ser Ala Val Val Gly Ile Leu (IISAVVGIL) [GP2, 9 amino acid transmembrane peptide of the HER2/neu protein]”, the “increase of injection site reactions by adding GP2 treatment” value in assay [1] (trastuzumab treated HER2 3+ patients vs GM-CSF control, average over all 10 doses) stood at 39.2 mm.
Take “GM-CSF: granulocyte macrophage colony-stimulating factor, adjuvant; control arm (called placebo) of the active-controlled trial”: the “Kaplan-Meier estimated 5-year disease free survival (DFS) rate” value in assay [2] is on record as 89.4%. Besides, the “median orthogonal mean induration” value in assay [1] (after a single dose) is on record as 7.8 mm. Moreover, the “patients with injection site reactions” value in assay [1] (all treated patients) is around 100%. Also, the “difference in reactions, HER2 3+ control patients (Herceptin treated) smaller than HER2 1-2+ control patients” value in assay [1] (average over all 10 doses) turned out to be 43.1 mm.
